Assay results as given in ChEMBL document CHEMBL3885861, “Open TG-GATES”.

Species on record: Rattus norvegicus
Experiment: Open TG-GATES - Regimen: Single
Format: toxicity, organism-based, Sprague-Dawley
Design: regimen Single, gender Male, age 6 weeks
Conditions: in vivo, po, 75 mg/kg, route gavage, dose level Low; for APTT / Bas / Eos / Fbg / Hb / Ht / Lym / MCH / MCHC / MCV / Mono / Neu / PT / Plat / RBC / Ret / WBC: tissue Blood; for KIDNEY_L / KIDNEY_R / KIDNEY_TOTAL: tissue Kidney; for LIVER: tissue Liver; for A/G / ALP / ALT / AST / BUN / CRE / Ca / Cl / DBIL / GLC / IP / K / LDH / Na / PL / RALB / TBIL / TC / TG / TP / gamma-GTP: tissue Plasma

CN(C/C=C/C#CC(C)(C)C)Cc1cccc2ccccc12 [TERBINAFINE]
TERMINAL_BW (3 h): 225.9 g | APTT (3 h): 19.4 s | Bas (3 h): 0.8% | Eos (3 h): 1% | Fbg (3 h): 219 mg/dL | Hb (3 h): 13.2 g/dL | Ht (3 h): 39.1% | Lym (3 h): 82.2% | MCH (3 h): 21.2 pg | MCHC (3 h): 33.8% | MCV (3 h): 62.7 fL | Mono (3 h): 2.2% | Neu (3 h): 14% | PT (3 h): 12 s | Plat (3 h): 116.2 x10_4/uL | RBC (3 h): 625.2 x10_4/ul | Ret (3 h): 7.3% | WBC (3 h): 88.5 x10_2/uL | KIDNEY_L (3 h): 1 g | KIDNEY_R (3 h): 1 g | KIDNEY_TOTAL (3 h): 2 g | LIVER (3 h): 10.4 g | A/G (3 h): 1.6 | ALP (3 h): 998 IU/L | ALT (3 h): 38.6 IU/L | AST (3 h): 69 IU/L | BUN (3 h): 11.8 mg/dL | CRE (3 h): 0.4 mg/dL | Ca (3 h): 10.7 mg/dL | Cl (3 h): 102.6 meq/L | DBIL (3 h): 0.088 mg/dL | GLC (3 h): 202.8 mg/dL | IP (3 h): 9.5 mg/dL | K (3 h): 3.8 meq/L | LDH (3 h): 161.4 IU/L | Na (3 h): 141.4 meq/L | PL (3 h): 143.6 mg/dL | RALB (3 h): 3.4 g/dL | TBIL (3 h): 0.1 mg/dL | TC (3 h): 79.4 mg/dL | TG (3 h): 51.2 mg/dL | TP (3 h): 5.5 g/dL | gamma-GTP (3 h): 0.8 IU/L | TERMINAL_BW (6 h): 221.9 g | APTT (6 h): 19.3 s | Bas (6 h): 0.8% | Eos (6 h): 1% | Fbg (6 h): 224.2 mg/dL | Hb (6 h): 13.5 g/dL | Ht (6 h): 40% | Lym (6 h): 78.8% | MCH (6 h): 21.3 pg | MCHC (6 h): 33.7% | MCV (6 h): 63.1 fL | Mono (6 h): 2.4% | Neu (6 h): 17.2% | PT (6 h): 12.1 s | Plat (6 h): 113 x10_4/uL | RBC (6 h): 634 x10_4/ul | Ret (6 h): 6.9% | WBC (6 h): 114.1 x10_2/uL | KIDNEY_L (6 h): 1 g | KIDNEY_R (6 h): 1 g | KIDNEY_TOTAL (6 h): 2 g | LIVER (6 h): 10.2 g | A/G (6 h): 1.6 | ALP (6 h): 872.2 IU/L | ALT (6 h): 34.6 IU/L | AST (6 h): 66 IU/L | BUN (6 h): 10.6 mg/dL | CRE (6 h): 0.4 mg/dL | Ca (6 h): 10.9 mg/dL | Cl (6 h): 102.2 meq/L | DBIL (6 h): 0.086 mg/dL | GLC (6 h): 200 mg/dL | IP (6 h): 9.3 mg/dL | K (6 h): 4 meq/L | LDH (6 h): 147 IU/L | Na (6 h): 140.8 meq/L | PL (6 h): 143.2 mg/dL | RALB (6 h): 3.4 g/dL | TBIL (6 h): 0.1 mg/dL | TC (6 h): 77.6 mg/dL | TG (6 h): 76.6 mg/dL | TP (6 h): 5.5 g/dL | gamma-GTP (6 h): 1 IU/L | TERMINAL_BW (9 h): 219.9 g | APTT (9 h): 18.1 s | Bas (9 h): 0.8% | Eos (9 h): 1.2% | Fbg (9 h): 215.6 mg/dL | Hb (9 h): 13.2 g/dL | Ht (9 h): 39.5% | Lym (9 h): 77.6% | MCH (9 h): 21.6 pg | MCHC (9 h): 33.6% | MCV (9 h): 64.3 fL | Mono (9 h): 2% | Neu (9 h): 18.4% | PT (9 h): 12.6 s | Plat (9 h): 113.5 x10_4/uL | RBC (9 h): 614.2 x10_4/ul | Ret (9 h): 6.6% | WBC (9 h): 90.4 x10_2/uL | KIDNEY_L (9 h): 1 g | KIDNEY_R (9 h): 1 g | KIDNEY_TOTAL (9 h): 2 g | LIVER (9 h): 8.9 g | A/G (9 h): 1.6 | ALP (9 h): 930.2 IU/L | ALT (9 h): 33.2 IU/L | AST (9 h): 71.4 IU/L | BUN (9 h): 10.6 mg/dL | CRE (9 h): 0.3 mg/dL | Ca (9 h): 10.3 mg/dL | Cl (9 h): 103.8 meq/L | DBIL (9 h): 0.062 mg/dL | GLC (9 h): 202.6 mg/dL | IP (9 h): 9.9 mg/dL | K (9 h): 3.8 meq/L | LDH (9 h): 195.4 IU/L | Na (9 h): 141.4 meq/L | PL (9 h): 124 mg/dL | RALB (9 h): 3.3 g/dL | TBIL (9 h): 0.1 mg/dL | TC (9 h): 68.8 mg/dL | TG (9 h): 29.8 mg/dL | TP (9 h): 5.4 g/dL | gamma-GTP (9 h): 1.6 IU/L | TERMINAL_BW (24 h): 238.9 g | APTT (24 h): 19.4 s | Bas (24 h): 0.8% | Eos (24 h): 1% | Fbg (24 h): 227.2 mg/dL | Hb (24 h): 13.3 g/dL | Ht (24 h): 39.7% | Lym (24 h): 77.2% | MCH (24 h): 21.1 pg | MCHC (24 h): 33.6% | MCV (24 h): 62.9 fL | Mono (24 h): 3% | Neu (24 h): 17.8% | PT (24 h): 12 s | Plat (24 h): 124.5 x10_4/uL | RBC (24 h): 631.4 x10_4/ul | Ret (24 h): 6.6% | WBC (24 h): 82.1 x10_2/uL | KIDNEY_L (24 h): 1.1 g | KIDNEY_R (24 h): 1 g | KIDNEY_TOTAL (24 h): 2.1 g | LIVER (24 h): 11.8 g | A/G (24 h): 1.5 | ALP (24 h): 1096 IU/L | ALT (24 h): 42.8 IU/L | AST (24 h): 84.8 IU/L | BUN (24 h): 15.2 mg/dL | CRE (24 h): 0.4 mg/dL | Ca (24 h): 10.8 mg/dL | Cl (24 h): 104.2 meq/L | DBIL (24 h): 0.1 mg/dL | GLC (24 h): 194.2 mg/dL | IP (24 h): 7.7 mg/dL | K (24 h): 4.3 meq/L | LDH (24 h): 207.8 IU/L | Na (24 h): 141 meq/L | PL (24 h): 135.6 mg/dL | RALB (24 h): 3.4 g/dL | TBIL (24 h): 0.2 mg/dL | TC (24 h): 68.6 mg/dL | TG (24 h): 109.2 mg/dL | TP (24 h): 5.6 g/dL | gamma-GTP (24 h): 1.6 IU/L
